This note sets out measurements from ChEMBL document CHEMBL2163289, “The discovery of N-[5-(4-bromophenyl)-6-[2-[(5-bromo-2-pyrimidinyl)oxy]ethoxy]-4-pyrimidinyl]-N'-propylsulfamide (Macitentan), an orally active, potent dual endothelin receptor antagonist” (J Med Chem, 2012).

Where a SMILES comes first, the peptide text is derived from it. [ ]: non-standard residue; d: D form.

In one assay the test system is Rattus norvegicus. Briefly: Antihypertensive activity in telemeterized hypertensive Dahl salt-sensitive rat assessed as reduction in mean arterial blood pressure at 3 mg/kg, po measured over 6 hrs. Format: functional, Artery.
Take `CCCS(=O)(=O)Nc1ncnc(OCCOc2ncc(Br)cn2)c1-c1ccc(Br)cc1`: the “Fall in mean arterial blood pressure” value was 25 mmHg.

Turning to `CCNS(=O)(=O)Nc1ncnc(OCCOc2ncc(Br)cn2)c1-c1ccc(Br)cc1`, the “Fall in mean arterial blood pressure” value amounted to 20 mmHg.

For the molecule `CCCCS(=O)(=O)Nc1ncnc(OCCOc2ncc(Br)cn2)c1-c1ccc(Br)cc1`, the “Fall in mean arterial blood pressure” value was 22 mmHg.

In a further assay the target is T1, Endothelin-1 receptor (Homo sapiens, UniProt P25101).
T1 sequence (P25101 whole entry): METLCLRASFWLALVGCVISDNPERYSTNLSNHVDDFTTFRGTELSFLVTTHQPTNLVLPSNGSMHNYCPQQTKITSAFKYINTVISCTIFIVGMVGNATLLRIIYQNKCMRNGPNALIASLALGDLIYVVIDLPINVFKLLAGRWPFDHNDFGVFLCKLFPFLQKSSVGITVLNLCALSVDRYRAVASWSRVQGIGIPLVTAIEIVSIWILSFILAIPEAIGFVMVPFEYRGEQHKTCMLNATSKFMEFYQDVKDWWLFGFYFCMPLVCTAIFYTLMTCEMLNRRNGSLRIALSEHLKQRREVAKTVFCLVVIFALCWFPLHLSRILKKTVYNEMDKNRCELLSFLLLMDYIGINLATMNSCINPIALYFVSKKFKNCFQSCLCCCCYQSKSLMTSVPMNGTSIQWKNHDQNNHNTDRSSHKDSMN
Briefly: Displacement of [I125]ET1 from recombinant ETA receptor expressed in CHO cells after 2 hrs by TopCount analysis. In kind it is cell-based.
Take `CCCNS(=O)(=O)Nc1nc(-c2ncccn2)nc(OCCOc2ncc(Br)cn2)c1Oc1ccccc1OC`: the IC50 is 3.8 nM.

Take `CCc1ccc(-c2c(NS(=O)(=O)NCc3ccccc3)ncnc2OCCOc2ncc(Br)cn2)cc1`: the IC50 worked out at 2.3 nM.

With `COCCOc1nc(NS(=O)(=O)NCc2ccccc2)c(Oc2ccccc2OC)c(OCCOc2ncc(Br)cn2)n1`, the IC50 amounted to 6.9 nM.

As for `CCCCS(=O)(=O)Nc1nc(-c2ncccn2)nc(OCCOc2ncc(Br)cn2)c1Oc1ccccc1OC`, the IC50 is 4.3 nM.

Turning to `COc1ccccc1Oc1c(NS(=O)(=O)CCc2ccccc2)nc(-c2ncccn2)nc1OCCOc1ncc(Br)cn1`, the IC50 came to 2.2 nM.

With `CN(Cc1ccccc1)S(=O)(=O)Nc1ncnc(OCCOc2ncc(Br)cn2)c1-c1ccc(Br)cc1`, the IC50 was 4.3 nM.

Regarding `CCCNS(=O)(=O)Nc1ncnc(OCCOc2ncc(Br)cn2)c1-c1ccc(Cl)cc1`, the IC50 came out at 1.2 nM.

Consider `CC(C)C[C@@H]1NC(=O)[C@@H](C(C)C)NC(=O)[C@@H]2CCCN2C(=O)[C@@H](CC(=O)O)NC(=O)[C@@H](Cc2c[nH]c3ccccc23)NC1=O` [BQ-123] (cyclo(L[dW][dD]P[dV])), for which the IC50 is 20.5 nM.

As to `O=S(=O)(Nc1ncnc(OCCOc2ncc(Br)cn2)c1-c1ccc(Br)cc1)N1CCOCC1`, the IC50 was determined as 2.8 nM.

Consider `COc1ccccc1Oc1c(NS(=O)(=O)CCc2ccccc2)nc(-c2ncccn2)nc1OCCOc1ncc(SC)cn1`, for which the IC50 turned out to be 1.1 nM.

With `CCCS(=O)(=O)Nc1ncnc(OCCOc2ncc(Br)cn2)c1-c1ccc(Br)cc1`, the IC50 was 2.2 nM.

For the molecule `CC(C)c1ccc(-c2c(NS(=O)(=O)NCc3ccccc3)ncnc2OCCOc2ncc(Br)cn2)cc1`, the IC50 turned out to be 3.6 nM.

With `COc1ccccc1Oc1c(NS(=O)(=O)c2ccc(C(C)(C)C)cc2)nc(-c2ncccn2)nc1OCCOc1ncc(Br)cn1`, the IC50 came to 1.5 nM.

With `CCNS(=O)(=O)Nc1ncnc(OCCOc2ncc(Br)cn2)c1-c1ccc(Br)cc1`, the 50% inhibitory concentration (IC50) is 0.8 nM.

On to `COc1ccccc1Oc1c(NS(=O)(=O)CCc2ccccc2)nc(-c2ncccn2)nc1OCCOc1ncccn1`, for which the concentration for half-maximal inhibition (IC50) was 8 nM.

`CCS(=O)(=O)Nc1nc(-c2ncccn2)nc(OCCOc2ncc(Br)cn2)c1Oc1ccccc1OC`: the IC50 came to 14 nM.

For the molecule `COc1ccccc1Oc1c(NS(=O)(=O)NCc2ccccc2)nc(N2CCOCC2)nc1OCCOc1ncc(Br)cn1`, the IC50 amounted to 1.4 nM.

Turning to `COc1ccccc1Oc1c(NS(=O)(=O)N(C)Cc2ccccc2)nc(-c2ncccn2)nc1OCCOc1ncc(Br)cn1`, the IC50 worked out at 7 nM.

Regarding `COc1ccccc1Oc1c(NS(C)(=O)=O)nc(-c2ncccn2)nc1OCCO`, the IC50 worked out at 4530 nM.

For `CNS(=O)(=O)Nc1nc(-c2ncccn2)nc(OCCOc2ncc(Br)cn2)c1Oc1ccccc1OC`, the IC50 was 7.9 nM.

For `COc1ccccc1Oc1c(NS(=O)(=O)NCc2ccccc2)nc(-c2ccncc2)nc1OCCOc1ncc(Br)cn1`, the IC50 was 3.4 nM.

For the molecule `CCCCS(=O)(=O)Nc1ncnc(OCCOc2ncc(Br)cn2)c1-c1ccc(Br)cc1`, the IC50 amounted to 1.1 nM.

`COc1ccccc1Oc1c(NS(=O)(=O)N2CCOCC2)nc(-c2ncccn2)nc1OCCOc1ncc(Br)cn1`: the IC50 came to 187 nM.

Consider `COc1ccccc1Oc1c(NS(=O)(=O)CCCc2ccccc2)nc(-c2ncccn2)nc1OCCOc1ncc(Br)cn1`, for which the IC50 is 6.7 nM.

`CCCCNS(=O)(=O)Nc1nc(-c2ncccn2)nc(OCCOc2ncc(Br)cn2)c1Oc1ccccc1OC`: the IC50 is 1.7 nM.

In the case of `O=S(=O)(NCc1ccccc1)Nc1ncnc(OCCOc2ncc(Br)cn2)c1-c1ccccc1`, the IC50 turned out to be 6.8 nM.

On to `CC[C@H](C)[C@H](NC(=O)[C@@H](NC(=O)[C@H](CC(=O)O)NC(=O)[C@H](CCC(N)=O)NC(=O)[C@H](Cc1cnc[nH]1)NC(=O)[C@@H]1CSSC[C@H](N)C(=O)N[C@@H]([C@@H](C)O)C(=O)N[C@H]2CSSC[C@H](NC(=O)[C@H](CCC(=O)O)NC(=O)[C@H](CCC(=O)O)NC(=O)[C@H](CC(=O)O)NC(=O)[C@H]([C@@H](C)O)NC(=O)[C@H](CCSC)NC(=O)[C@H](CC(=O)O)NC(=O)[C@H](CC(N)=O)NC2=O)C(=O)N[C@@H](CC(C)C)C(=O)N[C@@H](CC(N)=O)C(=O)N[C@@H](Cc2ccccc2)C(=O)N1)C(C)C)C(=O)N[C@@H](Cc1c[nH]c2ccccc12)C(=O)O` [SARAFOTOXIN 6C], for which the IC50 is above 100 nM.

For `COc1ccccc1Oc1c(NS(=O)(=O)NCc2ccccc2)ncnc1OCCOc1ncc(Br)cn1`, the IC50 was 6.9 nM.

Regarding `COc1ccccc1Oc1c(NS(=O)(=O)CCc2ccccc2)nc(-c2ncccn2)nc1OCCO`, the IC50 is 25.7 nM.

For the molecule `COc1ccccc1Oc1c(NS(=O)(=O)NCc2ccccc2)nc(-c2cnccn2)nc1OCCOc1ncc(Br)cn1`, the IC50 amounted to 2.1 nM.

Turning to `COc1ccccc1Oc1c(NS(=O)(=O)NCc2ccccc2)nc(-c2ncccn2)nc1OCCOc1ncc(Br)cn1`, the IC50 was determined as 1.9 nM.

Take `COc1cc(OC)nc(OCCOc2nc(-c3ncccn3)nc(NS(=O)(=O)CCc3ccccc3)c2Oc2ccccc2OC)n1`: the IC50 amounted to 4780 nM.

Regarding `COc1ccccc1Oc1c(NS(=O)(=O)NCc2ccccc2)nc(C2CC2)nc1OCCOc1ncc(Br)cn1`, the IC50 came out at 14 nM.

In the case of `COc1ccccc1Oc1c(NS(=O)(=O)c2ccccc2)nc(-c2ncccn2)nc1OCCOc1ncc(Br)cn1`, the IC50 was 10.4 nM.

On to `CCCS(=O)(=O)Nc1nc(-c2ncccn2)nc(OCCOc2ncc(Br)cn2)c1Oc1ccccc1OC`, for which the IC50 is 9.4 nM.

Regarding `COc1ccccc1Oc1c(NS(=O)(=O)CCc2ccccc2)nc(-c2ncccn2)nc1OCCOc1ncc(C2CC2)cn1`, the half-inhibitory concentration (IC50) was determined as 7.7 nM.

Turning to `COc1cnc(OCCOc2nc(-c3ncccn3)nc(NS(=O)(=O)CCc3ccccc3)c2Oc2ccccc2OC)nc1`, the IC50 was 3.2 nM.

As to `COc1ccccc1Oc1c(NS(=O)(=O)CCc2ccccc2)nc(-c2ncccn2)nc1OCCOc1ncc(C(F)(F)F)cn1`, the half-maximal inhibitory concentration (IC50) is 3 nM.

As to `COc1ccccc1Oc1c(NS(=O)(=O)Cc2ccccc2)nc(-c2ncccn2)nc1OCCOc1ncc(Br)cn1`, the IC50 was found to be 73 nM.

As to `COc1nc(NS(=O)(=O)NCc2ccccc2)c(Oc2ccccc2OC)c(OCCOc2ncc(Br)cn2)n1`, the IC50 turned out to be 40 nM.

On to `COc1ccccc1Oc1c(NS(C)(=O)=O)nc(-c2ncccn2)nc1OCCOc1ncc(Br)cn1`, for which the IC50 was found to be 113 nM.

In the case of `COc1ccccc1Oc1c(NS(C)(=O)=O)nc(-c2ncccn2)nc1OCCOc1ncccn1`, the IC50 worked out at 739 nM.

Take `Cc1ccc(-c2c(NS(=O)(=O)NCc3ccccc3)ncnc2OCCOc2ncc(Br)cn2)cc1`: the 50% inhibitory concentration (IC50) came to 0.7 nM.

For `COc1ccccc1Oc1c(NS(=O)(=O)c2ccc(C(C)(C)C)cc2)nc(-c2ncccn2)nc1OCCOc1ncccn1`, the IC50 is 4.3 nM.

Take `CCNS(=O)(=O)Nc1nc(-c2ncccn2)nc(OCCOc2ncc(Br)cn2)c1Oc1ccccc1OC`: the IC50 was 9.9 nM.

Regarding `COc1ccccc1Oc1c(NS(=O)(=O)CCc2ccccc2)nc(-c2ncccn2)nc1OCCOc1ncc(Cl)cn1`, the IC50 stood at 2.8 nM.

As for `NS(=O)(=O)Nc1ncnc(OCCOc2ncc(Br)cn2)c1-c1ccc(Br)cc1` [APROCITENTAN], the 50% inhibitory concentration (IC50) turned out to be 3.4 nM.

Consider `COc1ccccc1Oc1c(NS(=O)(=O)CCc2ccccc2)nc(-c2ncccn2)nc1OCCOc1ncc(C)cn1`, for which the IC50 was found to be 17.8 nM.

The IC50 is the concentration that gives 50% inhibition.
